Values after ≈ are worked out from the molar mass of the structure shown. Where two headings read alike, the source gives them in different places.
What was measured:
[1] = system: SW480 cells; assay: Sulforhodamine B (SRB) cell viability assay, SW480; type: cell-based; conditions: Homo sapiens, CRC cell line, 48 h, read-out: IC50 (μM) ± SD, SW480
Description: (§1) The cells were allowed to adhere overnight, from 12 h to 18 h, and then treated with increasing concentrations of each compound, C9, A36, and A42 (0.125 μM, 0.25 μM, 0.5 μM, 1 μM, 2.5 μM, and 5 μM), in their respective culture mediums for 48 h. In addition to a negative control that consisted only of cells and growth medium, a negative control containing the highest concentration of the solvent in which the compound was dissolved (DMSO 0.1%) was also used. The SRB assay was performed according to Marques et al.. The IC50 values were obtained using GraphPad Prism version 8.2.1 through the application of a sigmoidal dose–response nonlinear regression, after logarithmic transformation. The selectivity index was determined by dividing the IC50 value of the non-neoplastic BJ-5ta cell line by the IC50 value of the cancer cell lines (IC50 BJ-5ta/IC50 cancer cell line); furthermore, for the CRC model, a second selectivity index was also determined using the non-neoplastic NCM460 cell line (IC50 NCM460/IC50 CRC cell line). According to the results of the selectivity index, the cell line with the highest selectivity value for each of the models, CRC and breast, was selected for subsequent characterization.
(§2) Three CRC-derived cell lines, SW480 (KRAS^G12V), HCT116 (KRAS^G13D), and RKO (BRAF^V600E), harboring somatic mutations on KRAS or BRAF, and two breast-cancer-derived cell lines, MDA-MB-231 (basal like) and MCF7 (luminal A subtype), together with two non-neoplastic cell lines, NCM460 (normal colon mucosal epithelial cell line) and BJ-5ta (normal foreskin fibroblast cell line), were used to study the activity and selectivity of the three new benzo[a]phenoxazine compounds, C9, A36, and A42. All cell lines were treated with a range of drug concentrations (0.125 μM, 0.25 μM, 0.5 μM, 1 μM, 2.5 μM, and 5 μM) for 48 h, and the effect on cell viability was assessed using a sulforhodamine B assay (SRB) (Figure 2). […] In addition, the selectivity index was determined using the BJ-5ta cell line as a reference, as well as the NCM460 cell line for the CRC model (Table 1).

[2] = system: RKO cells; assay: Sulforhodamine B (SRB) cell viability assay, RKO; type: cell-based; conditions: Homo sapiens, CRC cell line, 48 h, read-out: IC50 (μM) ± SD, RKO
Description: as §1, §2

[3] = system: MCF7 cells; assay: Colony formation assay, MCF7; type: cell-based, human; conditions: MCF7, IC50/2, 48 h treatment
Description: (§3) A colony formation assay was conducted on the RKO and MCF7 cell lines. In 6-well plates, 600 cells/mL and 800 cells/mL RKO and MCF7 cells, respectively, were seeded. Adherent cells were treated with the compounds C9, A36, and A42 at IC50/2 and IC50 concentrations or 0.1% DMSO (vehicle). As a control, untreated cells were used. Following a 48 h incubation period, the cells were twice rinsed with PBS 1× before being supplemented with new medium. After that, the cells were given 10–14 days to grow (new medium was added every 3 days). Following a PBS 1× rinse, the colonies were fixed for 30 min using 0.5% crystal violet and 6% glutaraldehyde. The ImageJ software (V1.53) was used to calculate the number of colonies. The percentage of colonies was determined and normalized for the untreated control.

[4] = system: S. cerevisiae; conditions: yeast S. cerevisiae, microdilution; cited from earlier work
[5] = system: RKO cells; assay: Colony formation assay, RKO; type: cell-based, human; conditions: 10-14 days growth
Description: as §3

[6] = system: MCF7 cells; assay: Sulforhodamine B (SRB) cell viability assay, MCF7; type: cell-based; conditions: Homo sapiens, breast cancer cell line, 48 h, read-out: IC50 (μM) ± SD, MCF7
Description: as §1, §2

[7] = system: BJ-5ta cells; assay: Sulforhodamine B (SRB) cell viability assay, BJ-5ta; type: cell-based; conditions: Homo sapiens, non-neoplastic cell line, 48 h, read-out: IC50 (μM) ± SD, BJ-5ta
Description: as §1, §2

[8] = system: MCF7 cells; assay: Annexin V/PI assay (flow cytometry), MCF7; type: cell-based, human; conditions: MCF7, 2 × IC50 and 4 × IC50, 48 h
Description: (§4) RKO and MCF7 cells were seeded in 12-well plates at a density of 1 × 10^5 cells/mL. After 24 h, the cells were treated with C9, A36, and A42 at 2 × IC50 and 4 × IC50 concentrations or 0.1% DMSO (vehicle). Untreated cells were used as controls. After 48 h, floating and adherent cells were collected. The cells were resuspended in […] of binding buffer and treated for 15 min in the dark with 5 μL of Annexin V-FITC (Detection Kit-ab14085) and 5 μL of Propidium Iodide (50 μg/mL). The samples were subjected to flow cytometry analysis, PI fluorescence was detected using the ECD-A channel, and Annexin V fluorescence was detected using the FITC-A channel.
(§5) One of the main goals of clinical oncology is the development of compounds and treatments capable of selectively eliminating cancer cells. In this sense, we next evaluated the capability of the compounds to induce cell death in both cell lines. For this, we performed a flow cytometry analysis using annexin V-FITC and propidium iodide PI double staining. The conjugation of these two probes allowed for the discrimination of viable (negative for both), early apoptotic (annexin + and PI−), late apoptotic (annexin+ and PI+), and necrotic (annexin− and PI+) cells. […] Both flouting and attached cells were harvested and double stained.

[9] = system: MDA-MB-231 cells; assay: Sulforhodamine B (SRB) cell viability assay, MDA-MB-231; type: cell-based, human; conditions: for IC50: Homo sapiens, MDA-MB-231, breast cancer cell line, 48 h, SRB, read-out: IC50 (μM) ± SD, MDA-MB-231; for Selectivity Index Cell Line IC50/BJ-5ta IC50: MDA-MB-231 versus BJ-5ta
Description: as §1
Three CRC-derived cell lines, SW480 (KRAS^G12V), HCT116 (KRAS^G13D), and RKO (BRAF^V600E), harboring somatic mutations on KRAS or BRAF, and two breast-cancer-derived cell lines, MDA-MB-231 (basal like) and MCF7 (luminal A subtype), together with two non-neoplastic cell lines, NCM460 (normal colon mucosal epithelial cell line) and BJ-5ta (normal foreskin fibroblast cell line), were used to study the activity and selectivity of the three new benzo[a]phenoxazine compounds, C9, A36, and A42. All cell lines were treated with a range of drug concentrations (0.125 μM, 0.25 μM, 0.5 μM, 1 μM, 2.5 μM, and 5 μM) for 48 h, and the effect on cell viability was assessed using a sulforhodamine B assay (SRB) (Figure 2). The results were used to determine the IC50 value of each compound for all the cell lines (Table 1). In addition, the selectivity index was determined using the BJ-5ta cell line as a reference, as well as the NCM460 cell line for the CRC model (Table 1).

[10] = system: NCM460 cells; assay: Sulforhodamine B (SRB) cell viability assay, NCM460; type: cell-based; conditions: Homo sapiens, non-neoplastic cell line, 48 h, read-out: IC50 (μM) ± SD, NCM460
Description: as §1, §2

[11] = system: RKO cells; assay: Annexin V/PI assay (flow cytometry), RKO; type: cell-based, human; conditions: 2 × IC50 and 4 × IC50, 48 h
Description: as §4, §5

[12] = system: HCT116 cells; assay: Sulforhodamine B (SRB) cell viability assay, HCT116; type: cell-based; conditions: Homo sapiens, HCT-116, CRC cell line, 48 h, read-out: IC50 (μM) ± SD, HCT116
Description: as §1, §2

[13] = system: BJ-5ta cells; design: method as in PMID 36614056; conditions: lead compound, non-neoplastic cell line; read-out: IC50 (μM) ± SD, BJ-5ta; cited from earlier work
[14] = system: HCT116 cells; design: method as in PMID 36614056; conditions: lead compound, CRC cell line; read-out: IC50 (μM) ± SD, HCT116; cited from earlier work
[15] = system: SW480 cells; design: method as in PMID 36614056; conditions: lead compound, CRC cell line; read-out: IC50 (μM) ± SD, SW480; cited from earlier work
[16] = system: RKO cells; design: method as in PMID 36614056; conditions: lead compound, CRC cell line; read-out: IC50 (μM) ± SD, RKO; cited from earlier work
[17] = system: MCF7 cells; design: method as in PMID 36614056; conditions: lead compound, breast cancer cell line; read-out: IC50 (μM) ± SD, MCF7; cited from earlier work
[18] = system: NCM460 cells; design: method as in PMID 36614056; conditions: lead compound, non-neoplastic cell line; read-out: IC50 (μM) ± SD, NCM460; cited from earlier work
[19] = system: MDA-MB-231 cells; design: method as in PMID 36614056; conditions: lead compound, breast cancer cell line; read-out: IC50 (μM) ± SD, MDA-MB-231; cited from earlier work
[20] = system: MCF7 cells; assay: Cell proliferation by CFSE (flow cytometry), MCF7; type: cell-based, human
Description: (§6) RKO and MCF7 cell proliferation was evaluated through flow cytometry using the Carboxyfluorescein Diacetate Succinimidyl Ester (CFSE) probe. Confluent cells were collected, rinsed with PBS 1×, and incubated with 5 μM of CFSE for 15 min at 37 °C. Then, the cells were rinsed, resuspended in growth medium, and seeded in 12-well plates at 1 × 10^5 cells/mL. After 24 h, adherent cells were treated with compounds C9, A36, and A42 at IC50 and 2 × IC50 concentrations or 0.1% DMSO (vehicle). Untreated cells were used as controls. The cells were harvested at different time points of 0 h, 24 h, […], and 72 h. The cells were then analyzed in a flow cytometer and the CFSE median fluorescence intensity was quantified using the FITC-A channel. All median values were normalized to the time point 0 h.
(§7) The benzo[a]phenoxazines C9, A36, and A42 were tested for their capacity to decrease cell growth using an optimized flow cytometry Carboxyfluorescein Diacetate Succinimidyl Ester (CFSE) labeling procedure. This procedure enables the differentiation of successive rounds of cell division, since the CFSE probe is uniformly distributed among daughter cells during cell division. As a result, a decrease in green CFSE fluorescence was employed as an indicator of cell proliferation.

[21] = system: RKO cells; assay: Cell proliferation by CFSE (flow cytometry), RKO; type: cell-based, human; conditions: IC50 and 2 × IC50, 24 h, 48 h, 72 h
Description: as §6, §7

Structure (SMILES)	IC50 [1]	IC50 [2]	Colonies detected [3]	MIC (minimum inhibitory concentration) [4]	IC50 [6]	IC50 [7]	IC50 [9]	Selectivity Index Cell Line IC50/BJ-5ta IC50 [9]	IC50 [10]	IC50 [12]	also measured
ClCCCN=c1cc2oc3c4c5c(cc3nc-2c2ccccc12)CCCN5CCC4 [A42]	0.78 ± 0.07 µM	0.29 ± 0.01 µM	reduced number of small colonies	0.78 µM (≈ 0.326 µg/mL)	0.54 ± 0.02 µM	2.58 ± 0.19 µM	0.79 ± 0.03 µM	3.26	2.59 ± 0.31 µM	1.13 ± 0.07 µM	Reduction of the colonies formed ([5]; IC50, 48 h treatment): > 90%; Reduction of the colonies formed ([5]; IC50/2, 48 h treatment): more than 75%; Cell death induction (Annexin V/PI) [8]: most powerful compounds; Cell death induction (Annexin V/PI) [11]: most powerful compounds
CCN=c1cc2oc3cc(NCCCC(=O)OCC)c4ccccc4c3nc-2cc1C [BaP1]	–	–	–	25 µM (≈ 10.4 µg/mL)	–	–	–	1.05	–	–	IC50 [13]: 1.83 ± 0.06 µM; IC50 [14]: 1.9 ± 0.09 µM; IC50 [15]: 5.6 ± 0.19 µM; IC50 [16]: 1.4 ± 0.08 µM; IC50 [17]: 0.92 ± 0.07 µM; IC50 [18]: 12.8 ± 2.05 µM; IC50 [19]: 1.73 ± 0.03 µM
CCCNc1cc2oc3cc(=[N+](CCC)CCC)ccc-3nc2c2ccccc12 [A36]	0.72 ± 0.03 µM	0.37 ± 0.03 µM	reduced number of small colonies	1.56 µM	0.63 ± 0.05 µM	2.44 ± 0.18 µM	1.01 ± 0.09 µM	2.41	2.06 ± 0.25 µM	1.28 ± 0.06 µM	CFSE median fluorescence normalized to T0 ([20]; MCF7, 2 × IC50, 24 h (untreated 37%)): 62%; CFSE median fluorescence normalized to T0 ([20]; MCF7, 2 × IC50, 48 h (untreated 21%)): 59%; CFSE median fluorescence normalized to T0 ([20]; MCF7, 2 × IC50, 72 h (untreated 10%)): 47%; Effect on cell proliferation (CFSE) ([20]; MCF7, IC50 and 2 × IC50, 24 h, 48 h, 72 h): highest effect; CFSE median fluorescence normalized to T0 ([20]; MCF7, IC50 concentration, 24 h (untreated 37%)): 53%; CFSE median fluorescence normalized to T0 ([20]; MCF7, IC50 concentration, 48 h (untreated 21%)): 50%; CFSE median fluorescence normalized to T0 ([20]; MCF7, IC50 concentration, 72 h (untreated 10%)): 41%; Effect on cell proliferation (CFSE) [21]: highest effect

Reference: PMC11352945, “Anticancer Activity of Benzo[a]phenoxazine Compounds Promoting Lysosomal Dysfunction” (Cells, 2024)
